Reference: PubChem BioAssay AID1963838 (Molecular Pharmacology Branch, DTP, NCI, 2024)

Test system: 855422-203-R-J1-PDC complex spheroid viability
Assay: Anticancer human tumor 855422-203-R-J1-PDC patient-derived bladder carcinoma cell line growth inhibition [POLQ]
Conditions: for IC50: curve of first compound; for viability, T/C: stronger effect = lower value
Experimental: Multicellular complex tumor spheroid response to Polymerase (POL) inhibitors (novobiocin, ART-558, RP6685) in combination with a variety of drugs and investigational agents in selected tumor cell lines
The POL inhibitors (novobiocin, ART-558, and RP6685) were evaluated both individually and in combination with standard of care and investigational anticancer small molecules within a complex spheroid model of solid tumors. . Complex spheroids include a stromal component modeled by human endothelial cells (HUVEC) and fibroblasts modeled by human mesenchymal stem cells (MSCs). The concentration ranges selected for each drug and investigational agent were based upon clinically achievable concentrations if the clinical Cmax of the agent was known.
Compounds. The drugs and investigational agents: novobiocin (NSC847541), ART-558 (NSC835418), RP-6685 (NSC848927), peposertib (NSC802822), ceralasertib (NSC780249), elimusertib (NSC800525), camonsertib (NSC841442), AZD-1390 (NSC803789), olaparib (NSC753686), talazoparib (NSC767125), rucaparib (NSC756644), sotorasib (NSC818433), MRTX-1133 (NSC836407), SN-38 (NSC673596), topotecan (NSC609699), epotoside (NSC141540), doxorubicin (NSC123127), gemcitabine (NSC613327), 5-fluorouracil (NSC19893), paclitaxel (NSC125973), vemurafenib (NSC761431), MSA-2 (NSC828583), SN-011 (NSC837082), adavosertib (NSC754352), prexasertib (NSC758257), carboplatin (NSC241240) and oxaliplatin (NSC266046), were obtained from the National Cancer Institute (NCI) Developmental Therapeutics Program Chemical Repository (21). The FDA-approved anticancer drug set is available from the Developmental Therapeutics Program at https://dtp.cancer.gov/organization/dscb/obtaining/. […] The stock solutions were prepared in dimethyl sulfoxide (DMSO, Sigma-Aldrich, St. Louis, MO, cat. D2650), except for the platinum compounds which were prepared in saline (Quality Biological, Gaithersburg, MD, cat. 114-055-101), at 800-fold the tested concentration and stored at -70 degrees C prior to their use. All drugs and investigational agents were tested over a range starting from a high concentration at or near the clinical Cmax and decreasing in half-log increments. If the clinical Cmax for an agent had not been determined, the highest concentration tested was 10 microM, except for SN-38, which was tested at a high concentration of 1 microM.
Cell Culture. All cells were maintained in an incubator at 37 degrees C and 5% CO2 with 95% humidity. The PDC lines were cultured according to standard operating procedures established by the NCI PDMR (https://pdmr.cancer.gov). Table 3 of the manuscript, lists the cell lines along with the number of the three cell types plated to form the mct-spheroids and media for tumor cell growth. After thawing, all PDC lines, except 997537-175-T-J1-PDC and 415267-285-R-J2-PDC, were cultured in Matrigel-coated flasks prepared with a working solution of 1X Ham's F-12 nutrient mix, without supplementation (Thermo Fisher Scientific, cat. 11765054), 100 U/mL penicillin-streptomycin (Thermo Fisher Scientific, cat. 15140122), and 2.5% Matrigel (Corning Inc., Corning, NY, cat. 354248) for the first three passages. The two PDC lines 997537-175-T-J1-PDC and 415267-285-R-J2-PDC were cultured on uncoated flasks. The 857933-349-R-J2-PDC line was cultured in 6C/Colon 1B media containing advanced DMEM/F-12 (Thermo Fisher Scientific, cat. 12634028), 10 mM HEPES (Thermo Fisher Scientific, cat. 15630080), 1X GlutaMAX supplement (Thermo Fisher Scientific, cat. 35050061), 0.1 mg/mL primocin (InvivoGen, San Diego, CA, cat. ant-pm-2), 10% defined fetal bovine serum, heat inactivated (HyClone Laboratories Inc., Logan, UT, cat. SH30070.03HI), 50% L-WRN conditioned media (ATCC, cat. CRL-3276), 1.25 mM N-Acetyl-L-cysteine (Sigma-Aldrich, cat. A9165), 10 mM nicotinamide (Sigma-Aldrich, cat. N0636), 1X B-27 supplement (Thermo Fisher Scientific, cat. 17504044), 1X N-2 supplement (Thermo Fisher Scientific, cat. […]

[1] = second compound 0.0316 µM, first compound 0.0316 µM
[2] = second compound 0.0316 µM, first compound 0.1 µM
[3] = second compound 0.0316 µM, first compound 0.316 µM
[4] = second compound 0.0316 µM, first compound 1 µM
[5] = second compound 0.0316 µM, first compound 3.16 µM
[6] = second compound 0.0316 µM, first compound 10 µM
[7] = second compound 0.1 µM, first compound 0.0316 µM
[8] = second compound 0.1 µM, first compound 0.1 µM
[9] = second compound 0.1 µM, first compound 0.316 µM
[10] = second compound 0.1 µM, first compound 1 µM
[11] = second compound 0.1 µM, first compound 3.16 µM
[12] = second compound 0.1 µM, first compound 10 µM
[13] = second compound 0.316 µM, first compound 0.0316 µM
[14] = second compound 0.316 µM, first compound 0.1 µM
[15] = second compound 0.316 µM, first compound 0.316 µM
[16] = second compound 0.316 µM, first compound 1 µM
[17] = second compound 0.316 µM, first compound 3.16 µM
[18] = second compound 0.316 µM, first compound 10 µM
[19] = second compound 1 µM, first compound 0.0316 µM
[20] = second compound 1 µM, first compound 0.1 µM
[21] = second compound 1 µM, first compound 0.316 µM
[22] = second compound 1 µM, first compound 1 µM
[23] = second compound 1 µM, first compound 3.16 µM
[24] = second compound 1 µM, first compound 10 µM
[25] = second compound 3.16 µM, first compound 0.0316 µM
[26] = second compound 3.16 µM, first compound 0.1 µM
[27] = second compound 3.16 µM, first compound 0.316 µM
[28] = second compound 3.16 µM, first compound 1 µM
[29] = second compound 3.16 µM, first compound 3.16 µM
[30] = second compound 3.16 µM, first compound 10 µM
[31] = second compound 10 µM, first compound 0.0316 µM
[32] = second compound 10 µM, first compound 0.1 µM
[33] = second compound 10 µM, first compound 0.316 µM
[34] = second compound 10 µM, first compound 1 µM
[35] = second compound 10 µM, first compound 3.16 µM
[36] = second compound 10 µM, first compound 10 µM
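Also: spheroids exposed to compounds for seven days before readout.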

C=CC(=O)N1CCN(c2nc(=O)n(-c3c(C)ccnc3C(C)C)c3nc(-c4c(O)cccc4F)c(F)cc23)C(C)C1 (centres undefined) + Cc1cccc(N(C)C(=O)C2C(O)CCN2c2nc(C)cc(C(F)(F)F)c2C#N)c1
IC50 (second compound 0.0316 µM): > 10 µM
IC50 (second compound 0.1 µM): > 10 µM
IC50 (second compound 0.316 µM): > 10 µM
IC50 (second compound 1 µM): > 10 µM
IC50 (second compound 3.16 µM): > 10 µM
IC50 (second compound 10 µM): > 10 µM
viability, T/C [1]: 98.9%
viability, T/C [2]: 112%
viability, T/C [3]: 103%
viability, T/C [4]: 107%
viability, T/C [5]: 121%
viability, T/C [6]: 114%
viability, T/C [7]: 107%
viability, T/C [8]: 105%
viability, T/C [9]: 108%
viability, T/C [10]: 114%
viability, T/C [11]: 121%
viability, T/C [12]: 111%
viability, T/C [13]: 107%
viability, T/C [14]: 89.5%
viability, T/C [15]: 99.7%
viability, T/C [16]: 106%
viability, T/C [17]: 128%
viability, T/C [18]: 121%
viability, T/C [19]: 96.4%
viability, T/C [20]: 108%
viability, T/C [21]: 109%
viability, T/C [22]: 107%
viability, T/C [23]: 133%
viability, T/C [24]: 107%
viability, T/C [25]: 104%
viability, T/C [26]: 96%
viability, T/C [27]: 113%
viability, T/C [28]: 105%
viability, T/C [29]: 118%
viability, T/C [30]: 117%
viability, T/C [31]: 102%
viability, T/C [32]: 108%
viability, T/C [33]: 107%
viability, T/C [34]: 109%
viability, T/C [35]: 123%
viability, T/C [36]: 114%

CC1COCCN1c1cc(C2(O)CC3CCC(C2)O3)c2cnn(-c3ccn[nH]3)c2n1 (centres undefined) + Cc1cccc(N(C)C(=O)C2C(O)CCN2c2nc(C)cc(C(F)(F)F)c2C#N)c1
IC50 (second compound 0.0316 µM): 0.0938 µM
IC50 (second compound 0.1 µM): 0.0901 µM
IC50 (second compound 0.316 µM): 0.0882 µM
IC50 (second compound 1 µM): 0.0898 µM
IC50 (second compound 3.16 µM): 0.0911 µM
IC50 (second compound 10 µM): 0.0834 µM
viability, T/C [1]: 109%
viability, T/C [2]: 46.7%
viability, T/C [3]: 14.1%
viability, T/C [4]: 9.62%
viability, T/C [5]: 6.47%
viability, T/C [6]: 3.79%
viability, T/C [7]: 91.8%
viability, T/C [8]: 45.9%
viability, T/C [9]: 12.6%
viability, T/C [10]: 9%
viability, T/C [11]: 6.6%
viability, T/C [12]: 4.11%
viability, T/C [13]: 104%
viability, T/C [14]: 43.5%
viability, T/C [15]: 16.4%
viability, T/C [16]: 8.37%
viability, T/C [17]: 6.11%
viability, T/C [18]: 3.68%
viability, T/C [19]: 95%
viability, T/C [20]: 45.5%
viability, T/C [21]: 13.2%
viability, T/C [22]: 9.4%
viability, T/C [23]: 5.77%
viability, T/C [24]: 3.51%
viability, T/C [25]: 97.5%
viability, T/C [26]: 45.8%
viability, T/C [27]: 10.4%
viability, T/C [28]: 9.18%
viability, T/C [29]: 6.79%
viability, T/C [30]: 4.13%
viability, T/C [31]: 83.4%
viability, T/C [32]: 44%
viability, T/C [33]: 15.1%
viability, T/C [34]: 9.77%
viability, T/C [35]: 7.49%
viability, T/C [36]: 2.55%
